# ChEMBL document CHEMBL1132877, “Novel alpha-glucosidase inhibitors with a tetrachlorophthalimide skeleton” (Bioorg Med Chem Lett, 2000)
# Legend:
# [1] = Compound was evaluated for binding affinity towards Alpha-glucosidase analyzed by the surface plasma resonance (SPR) method
# [2] = Inhibition of Alpha-glucosidase activity.
# [3] = Compound was tested for the inhibition of Alpha-glucosidase
# [4] = Inhibitory effect on Alpha-glucosidase activity
SMILES,Ka [1] [M⁻¹],IC50 [2] [µM],IC50 [3] [µM],IC50 [4] [µM]
O=C1c2cccc(O)c2C(=O)N1c1ccccc1,,> 500,,
Nc1ccc2c(c1)C(=O)N(c1ccccc1)C2=O,,> 500,,
O=C1c2c(Cl)c(Cl)c(Cl)c(Cl)c2C(=O)N1CCc1ccccc1,25000,6,,
O=C1c2c(Cl)c(Cl)c(Cl)c(Cl)c2C(=O)N1CCCCCCc1ccccc1,,7,,
OC[C@H]1NC[C@H](O)[C@@H](O)[C@@H]1O [DUVOGLUSTAT],210000,47.6,,
O=C1c2ccccc2C(=O)N1CCCc1ccccc1,,> 500,,
Nc1cccc2c1C(=O)N(c1ccccc1)C2=O,,> 500,,

# More lines, now with the values ahead:
Ka [1] [M⁻¹],IC50 [2] [µM],IC50 [3] [µM],IC50 [4] [µM],SMILES
15000,3.5,,,O=C1c2c(Cl)c(Cl)c(Cl)c(Cl)c2C(=O)N1CCCCCc1ccccc1
,> 500,,,O=C1c2ccccc2C(=O)N1CCc1ccccc1
,25.9,,,O=C1c2cccc([N+](=O)[O-])c2C(=O)N1c1ccccc1
,> 500,,,O=C1c2ccccc2C(=O)N1c1ccccc1 [N-PHENYL-PHTHALIMIDE]
15000,10.9,,,O=C1c2c(Cl)c(Cl)c(Cl)c(Cl)c2C(=O)N1Cc1ccccc1
,> 500,,,O=C1c2ccccc2C(=O)N1Cc1ccccc1
,> 500,,,O=C1c2ccc(O)cc2C(=O)N1c1ccccc1
22000,,2,,O=C1c2c(Cl)c(Cl)c(Cl)c(Cl)c2C(=O)N1CCCCc1ccccc1
140000,2.6,,17.9,O=C1c2c(Cl)c(Cl)c(Cl)c(Cl)c2C(=O)N1c1ccccc1
,23.7,,,O=C1c2ccc([N+](=O)[O-])cc2C(=O)N1c1ccccc1
33000,4.5,,,O=C1c2c(Cl)c(Cl)c(Cl)c(Cl)c2C(=O)N1CCCc1ccccc1
